{"source": "patent US9718879B2", "about": "“Methods of treating pain by inhibition of VGF activity” (IMPERIAL INNOVATIONS LTD., priority 2012, dated 2017)", "key": {"[1]": {"tested_on": "p38 MAP kinase in spinal microglia", "details": "mice injected intrathecally; cited from earlier work"}, "[2]": {"tested_on": "p38 MAP kinase in spinal microglia and BV-2 microglial cell line", "details": "cited from earlier work"}, "[3]": {"tested_on": "ipsilateral hind limb mechanical sensitivity", "test": "Intraplantar injection of LQEQ-19, sensitivity to mechanical stimuli", "type": "in vivo, rat", "details": "275 microgram", "source_text": "(§1) On the other hand, another VGF-derived peptide LQEQ-19 seems to have a direct role on DRG neurons. […] In summary, there are at least three active VGF peptides involved in pain pathways, i.e., TLQP-62, TLQP-21 and LQEQ-19, and four types of cells, namely, spinal microglia, macrophage, nociceptive DRG neurons, and dorsal horn neurons, which respond to these peptides. In this project we will focus on the putative role of VGF peptides in regulating the activity/excitability of DRG neurons and the novel VGF-induced signaling pathway in microglia/macrophage."}, "pain behaviour": {"tested_on": "pain behaviour", "details": "in vivo; cited from earlier work"}, "[4]": {"tested_on": "nociceptors (C-fibre component of compound action potentials in dorsal roots)", "test": "Compound action potential recordings in dorsal roots after application to DRG", "details": "application of LQEQ-19 to DRG, in vitro", "source_text": "(A) Typical average trace of 12 compound action potential recordings. The record was divided into 3 components according to the conduction velocities of Aβ fibres (6.2 m/s-2.1 m/s), Ad fibres (2.1 m/s-0.8 m/s) and C fibres (0.8 m/s-0.1 m/s) fibres. (B) Maximum amplitudes of Aβ, Ad and C components of compound action potentials. (C) Area under the curve of Aβ, Ad and C compound action potential. Bold line on the X axis indicates LQEQ-19 application\nas §1"}, "cultured brain microglia": {"tested_on": "cultured brain microglia", "test": "Intracellular Ca2+ increase in cultured brain microglia", "type": "cell-based, rat", "details": "100 nM", "method": "(§2) Cell images show the Fluo-4 fluorescence associated with different time points during the recording.\n(§3) A possible explanation for the absence of a Ca2+ response from a second application of TLQP-21 is that there is a biological de-sensitisation occurring such as phosphorylation of the receptor. It is also possible that this could be due to depletion of Ca2+ in internal stores such as ER, however, this is less likely because the de-sensitisation occurs even with sufficient time (2 hours) to recover and replenish the Ca2+, and ATP treatment gave an increase in intracellular Ca2+ levels. Actually this de-sensitisation by TLQP-21 has also been observed in cerebellar granule cells.\n(§4) Ccl11 has been linked to inflammation^23, while Cxcl9 is known as a natural antagonist to Ccl11 receptor CCR3^24. We then used Sulfo-EMCS-conjugated TLQP-21 to purify and identify receptor(s) for TLQP-21. […] The membrane fractions of rat brain was incubated with the crosslinker-conjugated TLQP-21, and analysed by Tricine-PAGE and Western blotting using Streptavidin-HRP for the biotin tag on TLQP-21. […] The membrane fraction of rat brain was applied to a TLQP-21 attached column, and the elutions were analysed on SDS-PAGE and silver staining for direct comparison to the negative control (without TLQP-21). […] The ˜30 kDa bands from both gels were cut out, trypsinised and analysed using LC-MS/MS Orbitrap."}, "[5]": {"tested_on": "cultured bone marrow-derived macrophages", "test": "TLQP-21-elicited intracellular Ca2+ increase in cultured macrophages (Fluo-4)", "type": "cell-based", "details": "for increase in intracellular Ca2+ levels: 100 nM peptide, cultured macrophages, Fluo-4", "method": "as §2, §3\nThese peptides were either commercially sourced or provided by Neusentis/Pfizer. The effects of VGF peptides on sensory neurons was analysed using whole-cell current-clamp recordings on cultured DRG neurons. Responses of cells to depolarising current pulses will be analysed before and after superfusion of peptides and their efficacy and potency established. The nociceptive phenotype of the cells was confirmed by superfusing capsaicin to the cells at the end of the recordings, and analysing the action potential and current threshold of the cells. Based on our pilot data with LQEQ-19, we expected that some of these peptides will increase the activity of nociceptive neurons. The activation of microglia and macrophage was studied on two parameters, intracellular Ca^2+ increase and P38 MAP kinase phosphorylation. The phosphorylation levels of P38 MAP kinase was investigated as shown before^20. Once we identified peptides capable of activating sensory neurons and/or microglia/macrophage, confirmed the specific effects using scrambled peptides."}, "gC1qR": {"biological_target": "T1, gC1qR (Rattus norvegicus, UniProt O35796)", "T1 construct": "from tissue; host or cells: membrane fractions of rat brain (P4) and of 6 weeks old rat brain and spinal cord", "T1 sequence (O35796 72-279)": "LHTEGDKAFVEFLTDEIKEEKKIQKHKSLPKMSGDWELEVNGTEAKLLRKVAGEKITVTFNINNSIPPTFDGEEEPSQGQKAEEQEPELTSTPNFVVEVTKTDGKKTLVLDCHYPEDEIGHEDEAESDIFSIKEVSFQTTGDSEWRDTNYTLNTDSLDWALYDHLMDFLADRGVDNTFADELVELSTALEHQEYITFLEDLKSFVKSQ", "test": "Receptor identification by chemical cross-linking / monomeric avidin column and LC-MS/MS", "type": "binding", "details": "rat brain / spinal cord membrane fractions; ~30 kDa band identified by LC-MS/MS", "method": "FIG. 3A-F gC1qR is the receptor for TLQP-21. a, Biotinylated TLQP-21 was conjugated to Sulfo-EMCS cross-linker, and applied to membrane fractions of 6 weeks old rat brain and spinal cord for cross-linking (boric acid buffer, pH 8, with 150 mM NaCl, 3 hours incubation on ice). The reaction was terminated using 50 mM Tris buffer, and samples were ethanol precipitated and resolved using Tricine-PAGE and visualised by Western blot analysis by streptavidin-horse radish peroxidase. […] C, The ˜30 kDa band was analysed by LC-MS/MS Orbitrap following trypsinisation.\nas §4, with “CCR3^24.” for “CCR3^24. We then used Sulfo-EMCS-conjugated TLQP-21 to purify and identify receptor(s) for TLQP-21.”, “Orbitrap. […]” for “Orbitrap.”\nTo elucidate the identity of the ˜30 kDa protein, which were apparent in two different experiments, the protein band from the monomeric avidin experiment was analysed using LC-MS/MS Orbitrap. […]"}, "[6]": {"tested_on": "chemokines Ccl11 and Cxcl9 in microglia", "test": "PCR array of chemokine expression in microglia upon TLQP-21 stimulation", "type": "cell-based"}, "paw withdrawal threshold": {"tested_on": "paw withdrawal threshold", "test": "Intraplantar (hind paw) injection of peptide-treated macrophages, Von Frey paw withdrawal threshold", "type": "in vivo, rat", "method": "FIG. 6A-C Intraplantar injection of macrophages stimulated with TLQP-21 can evoke mechanical hypersensitivity, and anti-gC1qR antibody reverses mechanical hypersensitivity in partial sciatic nerve ligation (PSNL) model. a, 80,000 macrophages treated with 100 nM TLQP-21 (closed circle) and scrambled TLQP-21 (open circle) for 24 hours have been intraplantarly injected into 3 weeks old male rats. Mechanical sensitivity was examined by electrical Von Frey test. […] C, Time course of paw withdrawal thresholds to Von Frey mechanical stimulation on an left hind paw of PSNL model rats. The left sciatic nerve was exposed, tied with non-absorbable silk thread, and wrapped loosely with a oxidized regenerated cellulose previously soaked in 200 μl of PBS (open triangle) or PBS containing 25 μg of anti-gC1qR (closed circle) or control antibodies (open circle). […] Mean±s.e.m. *P<0.05 vs controls.\nMacrophages were treated with either 100 nM TLQP-21 or 100 nM scrambled TLQP-21 for 24 hours in culture. Following wash with PBS, macrophages (35,000 cells in 50 μl) were injected into the left hind paw. Ipsilateral paw withdrawal latency to Von Frey mechanical stimulation was measured at 1, 2, and 3 days after injection (n=9).\nWe hypothesised that macrophages stimulated by TLQP-21 affects sensory neurons and alter the mechanical sensitivity. We tested this hypothesis by measuring paw withdrawal thresholds in normal rats after hind paw injection of cultured macrophages that had been pre-treated with either TLQP-21 or ScrTLQP-21 for 24 hours. […] This effect lasted for 48 hours after injection. […] We then examined if in vivo application of the neutralising gC1qR antibody can prevent or delay development of neuropathic pain in PSNL model rats. The gC1qR antibody was applied to the site next to nerve ligation, in a cellulose membrane soaked form."}, "spinal cord slices": {"tested_on": "spinal cord slices", "details": "cited from earlier work"}, "hippocampal neurons": {"tested_on": "hippocampal neurons", "details": "cited from earlier work"}, "[7]": {"tested_on": "mechanical and cold sensitivity", "details": "intrathecal application to rats; cited from earlier work"}}, "note": "“Also recorded” adds a separate entry of the source. No end group written: not given here."}
{"molecule": "LQEQEELENYIEHVLLHRP [VGF-derived peptide]", "values": [{"measurement": "phosphorylated p38 MAP kinase in spinal microglia", "setting": "[1]", "result": "increase of phosphorylated p38 MAP kinase"}, {"measurement": "p38 MAP kinase phosphorylation", "setting": "[2]", "result": "causes P38 MAP kinase phosphorylation; also recorded: induces p38 MAP kinase phosphorylation"}, {"measurement": "time of development of hypersensitivity after injection", "setting": "[3]", "result": 10, "unit": "min"}, {"measurement": "hypersensitivity to mechanical stimuli", "setting": "[3]; ipsilateral hind limb, p≦0.001 vs vehicle", "result": "associated with a hypersensitivity to mechanical stimuli; also recorded: causes a mechanical hypersensitivity in vivo"}, {"measurement": "pain behaviour in the formalin test", "setting": "pain behaviour", "result": "enhances pain behaviour"}, {"measurement": "C-fibre component of compound action potentials (amplitude, area under the curve); sensitisation of nociceptors", "setting": "[4]", "result": "sensitises nociceptors in vitro; also recorded: significantly increases both the amplitude and the area under the curve"}]}
{"molecule": "Thr-Leu-Gln-Pro-Pro-Ala-Ser-Ser-Arg-Arg-Arg-His-Phe-His-His-Ala-Leu-Pro-Pro-Ala-Arg [TLQP-21]", "values": [{"measurement": "increase in intracellular Ca2+", "setting": "cultured brain microglia", "result": "causes an increase in intracellular Ca2+; also recorded: responded to TLQP-21 similarly to macrophages"}, {"measurement": "de-sensitisation to subsequent TLQP-21 stimulation", "setting": "[5]; 100 nM TLQP-21, macrophages, ATP response not desensitised", "result": "densensitises macrophage to further TLQP-21 stimulation; also recorded: induced de-sensitisation to subsequent TLQP-21 treatments"}, {"measurement": "increase in intracellular Ca2+ levels", "setting": "[5]", "result": "elicits an increase in intracellular Ca2+ levels; also recorded: drives an increase in intracellular Ca2+; also recorded: causes intracellular Ca^2+ increase; also recorded: caused transient increase in intracellular Ca2+ levels"}, {"measurement": "intracellular Ca2+ increase when extracellular Ca2+ is depleted", "setting": "[5]; macrophages, extracellular Ca2+ depleted", "result": "still observed"}, {"measurement": "binding to the receptor gC1qR", "setting": "gC1qR", "result": "co-purified with TLQP-21; also recorded: binds to the receptor gC1qR"}, {"measurement": "Ccl11 upregulated", "setting": "[6]", "result": 2.78, "unit": "fold"}, {"measurement": "Cxcl9 downregulated", "setting": "[6]", "result": 2.28, "unit": "fold"}, {"measurement": "duration of the effect on paw withdrawal threshold after injection", "setting": "paw withdrawal threshold; injection of macrophages stimulated by TLQP-21", "result": 48, "unit": "h"}, {"measurement": "tactile allodynia", "setting": "paw withdrawal threshold; macrophages treated with 100 nM peptide 24 hours, 35,000 cells in 50 μl into left hind paw, 1, 2, 3 days, n=9", "result": "produced tactile allodynia"}, {"measurement": "paw withdrawal threshold", "setting": "paw withdrawal threshold; macrophages treated with 100 nM peptide for 24 hours, 80,000 cells injected intraplantarly, Von Frey", "result": "caused reduction of paw withdrawal thresholds at 24 and 48 hours after injection; also recorded: decreased markedly"}]}
{"molecule": "cross-linker-conjugated TLQP-21: TLQP-21 with N-terminal biotin and extra C-terminal cysteine, conjugated to Sulfo-EMCS cross-linker (TLQPPASSRRRHFHHALPPARC; cyclised or stapled)", "values": [{"measurement": "increase in intracellular Ca2+ levels", "setting": "[5]", "result": "able to induce an increase in intracellular Ca2+ levels similar to the wild type TLQP-21"}]}
{"molecule": "Thr-Leu-Gln-Pro-Pro-Ala-Ser-Ser-Arg-Arg-Arg-His-Phe-His-His-Ala-Leu-Pro-Pro-Ala-Arg-His-His-Pro-Asp-Leu-Glu-Ala-Gln-Ala-Arg-Arg-Ala-Gln-Glu-Glu-Ala-Asp-Ala-Glu-Glu-Arg-Arg-Leu-Gln-Glu-Gln-Glu-Glu-Leu- … (TLQP-62 peptide from VGF, VGF-derived peptide) TLQPPASSRRRHFHHALPPARHHPDLEAQARRAQEEADAEERRLQEQEELENYIEHVLLHRP", "values": [{"measurement": "frequency of spontaneous excitatory post synaptic currents", "setting": "spinal cord slices", "result": "increase in the frequency of spontaneous excitatory post synaptic currents"}, {"measurement": "synaptic activity", "setting": "hippocampal neurons", "result": "increase synaptic activity"}, {"measurement": "pain behaviour (mechanical and cold allodynia)", "setting": "[7]", "result": "induces pain behaviour (cold and mechanical hypersensitivity); also recorded: long-lasting mechanical and cold behavioural allodynia"}]}
